Results: patent publication US6645504B1, “Bystander suppression of type I diabetes by oral administration of glucagon” (AutoImmune Inc., priority 1987, dated 2003)
Several values for one entry are separate records, joined by “and”; a condition that tells them apart may be missing. Equal values may be shown once.

Assays:
EAE [1] = assay: Adoptive transfer of disease suppression; format: in vivo, Lewis rats; settings: naive recipients immunized with MBP/CFA and given OVA subcutaneously; FIG. 9
Protocol: Adoptive Transfer Of Disease Suppression. In order to monitor the adoptive transfer of disease suppression occurring during Bystander Suppression donor rats were fed either 1 mg MBP, OVA, or KLH, five times at 2 day intervals and killed 7-14 days after the final feeding. Spleen cells were harvested, and incubated in vitro with the homologous antigen (50 μg/ml) in proliferation medium, for 72 hours. Cells were injected intraperitoneally: 10^8 cells for whole spleen populations or 5-6×10^7 cells for CD8− or CD4-depleted populations. Recipient animals were irradiated (250 rad) before adoptive transfer, immunized with MBP/CFA 6 hours after adoptive transfer, and challenged 8 hours later with 50 μg OVA.

[2] = tested on: DTH responses to MBP or OVA; assay: Delayed type hypersensitivity (DTH) testing, Example 2; format: in vivo, Lewis rats
Protocol: Delayed Type Hypersensitivity (DTH) Testing. DTH was tested by injecting 50 μg of MBP or OVA in PBS, subcutaneously into the ear. MBP was injected in the left ear and OVA in the right ear in the same animal. Thickness, in units of 0.01 inch, was measured in a blinded fashion, before and 48 hours after challenge, using micrometer calipers (Mitutoyo, Utsunomia, Japan). Change in ear thickness before and after challenge was recorded for each animal, and results were expressed as the mean for each experimental group ± SEM; each group consisted of five animals.

MBP line = assay: Transwell culture suppression of MBP T cell line; format: cell-based, Lewis rats; settings: MBP line + MBP
Text: (§1) Transwell Cultures. A dual chamber transwell culture system (Costar, Cambridge, Mass.), which is 24.5 mm in diameter and consists of two compartments separated by a semi-permeable polycarbonate membrane, with a pore size of 0.4 μm, was used. The two chambers are 1 mm apart, allowing cells to be coin-cubated in close proximity without direct cell-to-cell contact. To measure in vitro suppression of proliferative responses in transwell cultures, 5×10^4 MBP- or OVA-specific line cells, raised and maintained as previously described (Ben-Nun, A. et al., Eur. J. Immunol. 11:195, 1981), were cultured with 10^6 irradiated (2,500 rad) thymocytes, in 600 μl of proliferation media in the lower well. Spleen cells from orally tolerized rats or controls (fed BSA) were added to the upper well (5×10^5 cells in 200 μl). Spleen cells were removed 7-14 days after the last feeding, and a single cell suspension was prepared by pressing the spleens through a stainless steel mesh. MBP and OVA (50 μg/ml) were added in a volume of 20 μl. […] In some experiments, modulator cells were added in the lower well together with responder cells, and in these instances modulator cells were irradiated (1,250 rad) immediately before being placed in culture. Proliferation media consisted of RPMI 1640 (Gibco Laboratories, Grand Island, N.Y.) supplemented with […] 2-mercaptoethanol, 1% sodium pyruvate, 1% penicillin and streptomycin, 1% glutamine, 1% HEPES buffer, 1% nonessential amino acids, and 1% autologous serum. Each transwell was performed in quadruplicate. The transwells were incubated at 37° C. in a humidified 6% CO2 and 94% air atmosphere for 72 hours. After 54 hours of culture, each lower well was pulsed with 4 μCi of [^3H]thymidine and at 72 hours split and reseeded to three wells in a round-bottomed 96-well plate (Costar) for harvesting onto fiberglass filters and counting using standard liquid scintillation techniques. Percent suppression =100×(1−Δ A cpm responders cultured with modulators/Δ cpm of responders).

EAE [3] = assay: In vivo bystander suppression of EAE (MBP/CFA plus secondary antigen); set-up: species or system Lewis rats
Protocol: Immunization Of Animals. Animals were immunized with 25 μg of MBP in the footpad, emulsified in an equal volume of CFA containing 4 mg/ml of Mycobacterium tuberculosis (Difco Labs, Detroit, Mich.) in order to induce a substantial EAE disease state. For in vivo bystander suppression experiments, 50-300 μg of the secondary antigens OVA, BSA or KLH were injected subcutaneously in the same footpad in 100 μl PBS 8 hours after primary immunization with MBP CFA.
Clinical Evaluation. Animals were evaluated in a blinded fashion every day for evidence of EAE in order to correlate the clinical manifestations of Bystander Suppression with the in vitro assays described below. Clinical severity of EAE was scored as follows: 0, no disease; 1, limp tail; 2, hind limb paralysis; 3, hind limb paraplegia, incontinence; 4, tetraplegia; 5, death. Mean maximal clinical severity was calculated as previously described for each experimental group (7). Statistical analysis was performed using a one-tailed student's t test and a chi square analysis for comparing incidence between groups.
Induction Of Oral Tolerance. Animals were fed 1 mg MBP, OVA, BSA or KLH dissolved in 1 ml PBS or PBS alone, by gastric intubation using an 18-gauge stainless steel animal feeding needle (Thomas Scientific, Swedesboro, N.J.). Animals were fed five times (total dose of 5 mg), at intervals of 2-3 days with the last feeding 2 days before immunization.

TGF-β = assay: Measurement of TGF-β activity in serum-free culture supernatants of spleen cells; format: cell-based, Lewis rats; settings: spleen cells of fed animals stimulated in vitro with the fed antigen
Protocol: Measurement Of TGF-β Activity In Serum-Free Culture Supernatants. Serum free culture supernatants were collected as previously described (Kehri, et al. J. Exp. Med. 163: 1037-1050, 1986; Wahl, et al. J. […] Thereafter cells were washed three times and resuspended in serum-free medium for the remainder of the 72 hour culture, collected, then frozen until assayed. Determination of TGF-β content and isoform type in supernatants was performed using a mink lung epithelial cell line (American Type Culture Collection, Bethesda, Md. #CCL-64) according to Danielpour et al. (supra), and confirmed by a Sandwich Enzyme Linked Immunosorbent Assay (SELISA) assay as previously described (Danielpour et al. Growth Factors 2: 61-71,1989). The percent active TGF-β was determined by assay without prior acid activation of the samples.

[4] = tested on: rheumatoid arthritis symptoms; assay: Oral collagen in humans with rheumatoid arthritis; format: in vivo; settings: 0.1-1.0 mg single dose daily
Text: The above animal models can be used to establish the utility of the present invention in mammals (including humans). […] All of these human trials were attempted based on animal data using the appropriate disease model.

MBP specific T-cells = assay: Treatment of supernatants with anti-cytokine antibodies; format: cell-based, Lewis rats; settings: added to spleen cells of MBP-fed animals stimulated with MBP; FIG. 2
Protocol: In Vitro Suppression Of Proliferative Responses By Supernatants. Spleen cells were removed 7-14 days after the last feeding and a single cell suspension prepared by pressing the spleens through a stainless steel mesh. For preparation of supernatants, spleen cells at a concentration of 5×10^6 cells/ml were stimulated in vitro with MBP (50 μg/ml) in 10 ml of proliferation medium. Proliferation medium consisted of RPMI 1640 (GIBCO, Grand Island, N.Y.) supplemented with 2×10^−5 M 2-mercaptoethanol, 1% sodium pyruvate, 1% penicillin and streptomycin, 1% glutamine, 1% HEPES buffer, 1% nonessential amino acids and 1% autologous serum. Supernatants were harvested at 24 hours and 100 μl added to 2.5×10^4 MBP specific T-cells, raised and maintained as previously described (Ben-Nun, A. et al., Eur. J. Immunol. 11:195-199, 1981), cultured with 5×10^5 irradiated (2500 rad) thymocytes, in 100 μl of proliferation media. MBP ([…]) was added to the culture in a volume of 20 μl. Experiments were performed in triplicate in round bottomed 96-well plates (Costar, Cambridge, Mass.). Cells were cultured for 72 hours at 37° C. in an incubator with humidified 6% CO2 and 94% air atmosphere, and each well was pulsed with 1 μCi of ^3H thymidine for the last 18 hours of culture. Cultures were harvested onto fiberglass filters using a multiharvester and counted using standard liquid scintillation techniques. […]

DTH responses = DTH responses in animals fed MBP or MBP peptides; format: in vivo, Lewis rats; settings: FIG. 15
Text: Guinea pig MBP peptide 131-150 was ineffective in this case. Peptides were also fed with STI which prevents their breakdown by gastric juices and enhances their biological effect. DTH responses to whole MBP were suppressed by feeding MBP or any one of the MBP-peptides 21-40, or 71-90.

OVA (responder) line = assay: Transwell triggering of suppression by MBP peptides; format: cell-based, rats; settings: peptide added to modulator well with spleen cells of MBP-fed animals; FIG. 11
Text: as §1
The Transwell System of Example 2 above was used to identify the epitopes present on guinea pig MBP which induce the release of TGF-β from suppressor T-cells.
Peptides corresponding to guinea pig MBP residue nos.

[5] = tested on: MBP-primed lymphoid cells; assay: Proliferation of MBP-primed lymphoid cells in response to overlapping guinea pig MBP peptides; format: cell-based, rats; settings: lymph node cells triggered with MBP-peptides; FIG. 10
Text: The disease-inducing fragments (autoimmune response epitopes) of MBP were first confirmed as follows: Overlapping peptides as detailed in FIG. 10, of guinea pig MBP were obtained from commercial sources or synthesized in accordance with well-known techniques, specifically using a commercial peptide synthesis apparatus (from Applied Biosystems) and following the manufacturer's instructions. Whole MBP was then fed to rats and lymph node cells from the orally tolerized animals were triggered with the MBP-peptides. The ability of the triggered cells to induce killer T-cells was then quantitatively determined by a proliferation assay also, as described in Examples 1 and 2, and by testing the ability of the proliferating cells to transfer the disease.

EAE [6] = assay: EAE induced by guinea pig MBP 71-90, feeding of MBP peptides; format: in vivo, Lewis rats; settings: fed; FIG. 14
Protocol: The effects of feeding various peptides to Lewis rats induced for EAE by guinea pig MBP residue nos. 71-90 (the major immunodominant epitope of guinea pig MBP as shown in Example 3 above) were also studied.
EAE was induced by immunizing with 0.25 mg of guinea pig MBP amino acid residue nos 71-90 in Complete Freund's Adjuvant and the effect of feeding various guinea pig MBP peptides on EAE was examined.

EAE [7] = assay: I.V. tolerization with MBP and MBP peptides in EAE induced with whole guinea pig MBP; format: in vivo, SJL/J mice; settings: days 8 and 9 post immunization, FIG. 16
Text: FIG. 16 is a bar graph showing the effect of intravenous tolerization with MBP and disease inducing and non-inducing fragments thereof on induced EAE expression in SJL/J mice.
Finally, the suppression of EAE by I.V. tolerization with MBP and MBP peptides prior to disease expression (on days 8 and 9 post immunization) was examined.

[8] = OVA-fed modulators + OVA in upper well
[9] = OVA-fed modulators in upper well without OVA

## OVA: Ovalbumin purchased from Sigma
EAE [1]
  adoptive transfer of protection by spleen cells from fed animals: adoptively transferred protection
[2]; OVA fed, OVA subcutaneously in association with MBP/CFA
  DTH response to OVA: did not generate an immune response to OVA
[2]; fed antigen, then immunized with MBP/CFA plus OVA, FIG. 7
  DTH responses to MBP: Suppressed DTH responses to MBP
MBP line; [8]
  Percent Suppression: 47%
  Δ cpm: 37,778 ± 3,780 cpm
MBP line; [9]
  Percent Suppression: 6%
  Δ cpm: 67,075 ± 2,904 cpm
EAE [3]; OVA fed (1 mg, five times) plus OVA given subcutaneously after MBP/CFA, FIG. 6B
  disease severity: 0.9±0.2
EAE [3]; OVA fed and KLH given subcutaneously (control group), FIG. 6B
  disease severity: 3.9±0.1
EAE [3]; animals fed OVA in whom KLH was given after MBP/CFA plus OVA subcutaneously, FIG. 6C, two values 'respectively'
  disease severity: 3.7±0.1 and 3.8±0.2
EAE [3]; fed antigen, same antigen subcutaneously after MBP/CFA
  dose of secondary antigen given subcutaneously at which suppression of EAE occurred: 50 µg
EAE [3]; not fed, OVA given subcutaneously in footpad 8 hours after MBP/CFA, FIG. 6A
  mean maximal clinical disease severity: 3.8±0.1
TGF-β
  TGF-β in the active form: 65±9%
TGF-β; serum-free
  amount of TGF-β: 6.1 ± 1.0 ng/mL

## collagen
[4]
  rheumatoid arthritis symptoms (joint tenderness, AM stiffness, grip strength): successfully suppressed

## COc1ccc2c(c1)c(CC(=O)O)c(C)n2C(=O)c1ccc(Cl)cc1 [indomethacin]
MBP specific T-cells
  effect on suppression mediated by the supernatants: No effect on suppression

## guinea pig MBP 71-90: peptide spanning residue 71-90 of guinea pig MBP, the immunodominant epitope (SLPQKSQRSQDENPVVHFFK; UniProt P25188 71-90, looked up, fragment)
DTH responses
  DTH responses to guinea pig MBP peptide 71-90: suppressed
  DTH responses to whole MBP: suppressed
OVA (responder) line
  triggering suppression of proliferation in the transwell system: ineffective in triggering suppression
[5]
  induction of killer T-cells (proliferation): by far the most efficient inducer of killer T-cells
EAE [6]
  down-regulation of EAE induced by guinea pig MBP 71-90: equally effective in down-regulating EAE
EAE [7]
  suppression of EAE induced with whole guinea pig MBP: effective in suppressing EAE
